Article PMC9310519, “Small-molecule inhibitor of intestinal anion exchanger SLC26A3 for treatment of hyperoxaluria and nephrolithiasis” (JCI Insight, 2022)
pIC50: −log10 of the molar value.

Experiments:
D1 Human Dopamine = target: T1, D1 Human Dopamine (Homo sapiens, UniProt P21728); test: biochemical; parameters: Eurofins SafetyScreen44 radioligand binding displacement, percent inhibition, duplicate; settings: radioligand binding
T1 construct: gene DRD1
Procedure: (§1) Possible off-target effects of DRAinh-A270 were investigated by panel screening (Eurofins SafetyScreen44). […] Testing for CYP450 and hERG inhibition also supported DRAinh-A270 safety (Supplemental Tables 2 and 3, respectively). Finally, metabolic stability of DRAinh-A270 was measured in mouse, rat, and human microsomes.

hERG = target: T2, hERG (Homo sapiens, UniProt Q12809); test: in vitro; parameters: Eurofins SafetyScreen44 radioligand binding displacement, percent inhibition, duplicate; settings: radioligand binding
T2 construct: gene KCNH2
Procedure: as §1

H2 Human Histamine = target: T3, H2 Human Histamine (Homo sapiens, UniProt P25021); test: biochemical; parameters: Eurofins SafetyScreen44 radioligand binding displacement, percent inhibition, duplicate; settings: radioligand binding
T3 construct: gene HRH2
Procedure: as §1

[1] = target: T4, alpha2A Human Adrenoceptor (Homo sapiens, UniProt P08913); test: biochemical; parameters: Eurofins SafetyScreen44 radioligand binding displacement, percent inhibition, duplicate; settings: radioligand binding
T4 construct: gene ADRA2A
Procedure: as §1

[2] = target: T5, nAChR (alpha4/beta2) Human Ion Channel (Homo sapiens, UniProt P17787+P43681); test: biochemical; parameters: Eurofins SafetyScreen44 radioligand binding displacement, percent inhibition, duplicate; settings: radioligand binding
T5 construct: gene CHRNB2
Procedure: as §1

5-HT1A Human Serotonin = target: T6, 5-HT1A Human Serotonin (Homo sapiens, UniProt P08908); test: biochemical; parameters: Eurofins SafetyScreen44 radioligand binding displacement, percent inhibition, duplicate; settings: radioligand binding
T6 construct: gene HTR1A
Procedure: as §1

GR Human Glucocorticoid = target: T7, GR Human Glucocorticoid (Homo sapiens, UniProt P04150); test: biochemical; parameters: Eurofins SafetyScreen44 radioligand binding displacement, percent inhibition, duplicate; settings: radioligand binding
T7 construct: gene NR3C1
Procedure: as §1

[3] = target: T8, NET Human Norepinephrine Transporter (Homo sapiens, UniProt P23975); test: biochemical; parameters: Eurofins SafetyScreen44 radioligand binding displacement, percent inhibition, duplicate; settings: radioligand binding
T8 construct: gene SLC6A2
Procedure: as §1

5-HT1B Human Serotonin = target: T9, 5-HT1B Human Serotonin (Homo sapiens, UniProt P28222); test: biochemical; parameters: Eurofins SafetyScreen44 radioligand binding displacement, percent inhibition, duplicate; settings: radioligand binding
T9 construct: gene HTR1B
Procedure: as §1

mu (MOP) Human Opioid = target: T10, mu (MOP) Human Opioid (Homo sapiens, UniProt P35372); test: biochemical; parameters: Eurofins SafetyScreen44 radioligand binding displacement, percent inhibition, duplicate; settings: radioligand binding
T10 construct: gene OPRM1
Procedure: as §1

beta2 Human Adrenoceptor = target: T11, beta2 Human Adrenoceptor (Homo sapiens, UniProt P07550); test: biochemical; parameters: Eurofins SafetyScreen44 radioligand binding displacement, percent inhibition, duplicate; settings: radioligand binding
T11 construct: gene ADRB2
Procedure: as §1

[4] = target: T12, M1 Human Acetylcholine (Muscarinic) (Homo sapiens, UniProt P11229); test: biochemical; parameters: Eurofins SafetyScreen44 radioligand binding displacement, percent inhibition, duplicate; settings: radioligand binding
T12 construct: gene CHRM1
Procedure: as §1

[5] = target: T13, M2 Human Acetylcholine (Muscarinic) (Homo sapiens, UniProt P08172); test: biochemical; parameters: Eurofins SafetyScreen44 radioligand binding displacement, percent inhibition, duplicate; settings: radioligand binding
T13 construct: gene CHRM2
Procedure: as §1

H1 Human Histamine = target: T14, H1 Human Histamine (Homo sapiens, UniProt P35367); test: biochemical; parameters: Eurofins SafetyScreen44 radioligand binding displacement, percent inhibition, duplicate; settings: radioligand binding
T14 construct: gene HRH1
Procedure: as §1

V1A Human Vasopressin = target: T15, V1A Human Vasopressin (Homo sapiens, UniProt P37288); test: biochemical; parameters: Eurofins SafetyScreen44 radioligand binding displacement, percent inhibition, duplicate; settings: radioligand binding
T15 construct: gene AVPR1A
Procedure: as §1

CB1 Human Cannabinoid = target: T16, CB1 Human Cannabinoid (Homo sapiens, UniProt P21554); test: biochemical; parameters: Eurofins SafetyScreen44 radioligand binding displacement, percent inhibition, duplicate; settings: radioligand binding
T16 construct: gene CNR1
Procedure: as §1

[6] = target: T17, M3 Human Acetylcholine (Muscarinic) (Homo sapiens, UniProt P20309); test: biochemical; parameters: Eurofins SafetyScreen44 radioligand binding displacement, percent inhibition, duplicate; settings: radioligand binding
T17 construct: gene CHRM3
Procedure: as §1

ETA Human Endothelin = target: T18, ETA Human Endothelin (Homo sapiens, UniProt P25101); test: biochemical; parameters: Eurofins SafetyScreen44 radioligand binding displacement, percent inhibition, duplicate; settings: radioligand binding
T18 construct: gene EDNRA
Procedure: as §1

D2S Human Dopamine = target: T19, D2S Human Dopamine (Homo sapiens, UniProt P14416); test: biochemical; parameters: Eurofins SafetyScreen44 radioligand binding displacement, percent inhibition, duplicate; settings: radioligand binding
T19 construct: gene DRD2; D2S short isoform
Procedure: as §1

beta1 Human Adrenoceptor = target: T20, beta1 Human Adrenoceptor (Homo sapiens, UniProt P08588); test: biochemical; parameters: Eurofins SafetyScreen44 radioligand binding displacement, percent inhibition, duplicate; settings: radioligand binding
T20 construct: gene ADRB1
Procedure: as §1

[7] = target: T21, alpha1A Human Adrenoceptor (Homo sapiens, UniProt P35348); test: biochemical; parameters: Eurofins SafetyScreen44 radioligand binding displacement, percent inhibition, duplicate; settings: radioligand binding
T21 construct: gene ADRA1A
Procedure: as §1

5-HT2A Human Serotonin = target: T22, 5-HT2A Human Serotonin (Homo sapiens, UniProt P28223); test: biochemical; parameters: Eurofins SafetyScreen44 radioligand binding displacement, percent inhibition, duplicate; settings: radioligand binding
T22 construct: gene HTR2A
Procedure: as §1

kappa (KOP) Human Opioid = target: T23, kappa (KOP) Human Opioid (Homo sapiens, UniProt P41145); test: biochemical; parameters: Eurofins SafetyScreen44 radioligand binding displacement, percent inhibition, duplicate; settings: radioligand binding
T23 construct: gene OPRK1
Procedure: as §1

CB2 Human Cannabinoid = target: T24, CB2 Human Cannabinoid (Homo sapiens, UniProt P34972); test: biochemical; parameters: Eurofins SafetyScreen44 radioligand binding displacement, percent inhibition, duplicate; settings: radioligand binding
T24 construct: gene CNR2
Procedure: as §1

delta (DOP) Human Opioid = target: T25, delta (DOP) Human Opioid (Homo sapiens, UniProt P41143); test: biochemical; parameters: Eurofins SafetyScreen44 radioligand binding displacement, percent inhibition, duplicate; settings: radioligand binding
T25 construct: gene OPRD1
Procedure: as §1

5-HT2B Human Serotonin = target: T26, 5-HT2B Human Serotonin (Homo sapiens, UniProt P41595); test: biochemical; parameters: Eurofins SafetyScreen44 radioligand binding displacement, percent inhibition, duplicate; settings: radioligand binding
T26 construct: gene HTR2B
Procedure: as §1

A2A Human Adenosine = target: T27, A2A Human Adenosine (Homo sapiens, UniProt P29274); test: biochemical; parameters: Eurofins SafetyScreen44 radioligand binding displacement, percent inhibition, duplicate; settings: radioligand binding
T27 construct: gene ADORA2A
Procedure: as §1

AR Human Androgen = AR Human Androgen (Homo sapiens, UniProt P10275); test: biochemical; parameters: Eurofins SafetyScreen44 radioligand binding displacement, percent inhibition, duplicate; settings: radioligand binding
Procedure: as §1

[8] = target: T28, CCK1 (CCKA) Human Cholecystokinin (Homo sapiens, UniProt P32238); test: biochemical; parameters: Eurofins SafetyScreen44 radioligand binding displacement, percent inhibition, duplicate; settings: radioligand binding
T28 construct: gene CCKAR
Procedure: as §1

5-HT3 Human Serotonin = target: T29, 5-HT3 Human Serotonin (Homo sapiens, UniProt P46098); test: biochemical; parameters: Eurofins SafetyScreen44 radioligand binding displacement, percent inhibition, duplicate; settings: radioligand binding
T29 construct: gene HTR3A
Procedure: as §1

[9] = target: T30, DAT Human Dopamine Transporter (Homo sapiens, UniProt Q01959); test: biochemical; parameters: Eurofins SafetyScreen44 radioligand binding displacement, percent inhibition, duplicate; settings: radioligand binding
T30 construct: gene SLC6A3
Procedure: as §1

[10] = target: T31, COX2 Human Cyclooxygenase (Homo sapiens, UniProt P35354); test: biochemical; parameters: Eurofins SafetyScreen44 enzymatic assay, percent inhibition, duplicate; settings: enzymatic assay
T31 construct: gene PTGS2
Procedure: as §1

[11] = target: PDE3A Human Phosphodiesterase (Homo sapiens, UniProt Q14432); test: biochemical; parameters: Eurofins SafetyScreen44 enzymatic assay, percent inhibition, duplicate; settings: enzymatic assay
Procedure: as §1

[12] = target: T32, COX1 Human Cyclooxygenase (Homo sapiens, UniProt P23219); test: biochemical; parameters: Eurofins SafetyScreen44 enzymatic assay, percent inhibition, duplicate; settings: enzymatic assay
T32 construct: gene PTGS1
Procedure: as §1

[13] = target: T33, PDE4D2 Human Phosphodiesterase (Homo sapiens, UniProt Q08499); test: biochemical; parameters: Eurofins SafetyScreen44 enzymatic assay, percent inhibition, duplicate; settings: enzymatic assay
T33 construct: gene PDE4D; PDE4D2 isoform
Procedure: as §1

Acetylcholinesterase = target: T34, Acetylcholinesterase (Homo sapiens, UniProt P22303); test: biochemical; parameters: Eurofins SafetyScreen44 enzymatic assay, percent inhibition, duplicate; settings: enzymatic assay
T34 construct: gene ACHE
Procedure: as §1

[14] = target: T35, Monoamine Oxidase A (MAO-A) (Homo sapiens, UniProt P21397); test: biochemical; parameters: Eurofins SafetyScreen44 enzymatic assay, percent inhibition, duplicate; settings: enzymatic assay
T35 construct: gene MAOA
Procedure: as §1

SLC26A3 (murine) = SLC26A3 (murine) (Mus musculus, UniProt Q9WVC8); test: YFP oxalate/chloride exchange assay in FRT cells stably expressing murine SLC26A3; Transwell oxalate transport; assay type: cell-based
SLC26A3 (human) = SLC26A3 (human) (Homo sapiens, UniProt P40879); test: YFP halide-sensor anion transport assay in HEK293 cells expressing human SLC26A3; assay type: cell-based
Chain of SLC26A3 (human) (P40879 whole entry): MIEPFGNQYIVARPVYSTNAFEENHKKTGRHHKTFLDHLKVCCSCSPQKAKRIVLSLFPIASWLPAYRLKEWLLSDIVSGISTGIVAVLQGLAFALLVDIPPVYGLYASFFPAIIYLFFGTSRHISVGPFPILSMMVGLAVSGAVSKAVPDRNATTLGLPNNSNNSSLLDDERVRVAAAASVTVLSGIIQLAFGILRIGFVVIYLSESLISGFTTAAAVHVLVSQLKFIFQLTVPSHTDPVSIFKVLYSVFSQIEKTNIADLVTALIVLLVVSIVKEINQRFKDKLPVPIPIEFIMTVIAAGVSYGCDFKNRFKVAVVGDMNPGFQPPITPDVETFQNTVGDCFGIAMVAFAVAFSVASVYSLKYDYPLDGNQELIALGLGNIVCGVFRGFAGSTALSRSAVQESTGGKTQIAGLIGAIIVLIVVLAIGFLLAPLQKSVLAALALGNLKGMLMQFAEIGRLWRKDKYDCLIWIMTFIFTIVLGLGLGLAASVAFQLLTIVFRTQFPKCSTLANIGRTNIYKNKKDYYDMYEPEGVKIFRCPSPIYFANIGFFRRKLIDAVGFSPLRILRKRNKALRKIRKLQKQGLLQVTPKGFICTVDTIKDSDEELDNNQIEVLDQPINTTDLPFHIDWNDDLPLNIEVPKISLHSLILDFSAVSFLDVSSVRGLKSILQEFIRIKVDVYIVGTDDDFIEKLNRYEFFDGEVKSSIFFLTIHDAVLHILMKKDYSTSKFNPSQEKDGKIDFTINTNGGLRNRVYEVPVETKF

T31 sequence (P35354 whole entry): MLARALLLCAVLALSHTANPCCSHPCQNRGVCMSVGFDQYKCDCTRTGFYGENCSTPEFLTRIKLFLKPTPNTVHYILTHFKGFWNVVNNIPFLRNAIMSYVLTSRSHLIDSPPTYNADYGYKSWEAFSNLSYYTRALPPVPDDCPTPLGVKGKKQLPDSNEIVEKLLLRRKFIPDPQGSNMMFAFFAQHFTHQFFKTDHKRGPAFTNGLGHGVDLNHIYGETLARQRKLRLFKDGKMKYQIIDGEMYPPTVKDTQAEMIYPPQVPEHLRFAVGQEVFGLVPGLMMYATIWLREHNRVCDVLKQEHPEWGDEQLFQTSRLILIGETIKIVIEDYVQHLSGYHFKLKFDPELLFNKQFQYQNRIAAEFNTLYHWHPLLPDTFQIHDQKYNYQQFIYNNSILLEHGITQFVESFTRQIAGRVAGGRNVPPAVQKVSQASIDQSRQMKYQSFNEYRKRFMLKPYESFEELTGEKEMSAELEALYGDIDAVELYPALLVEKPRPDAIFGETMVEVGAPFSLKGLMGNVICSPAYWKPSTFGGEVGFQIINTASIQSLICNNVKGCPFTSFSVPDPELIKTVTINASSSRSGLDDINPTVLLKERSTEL
Chain of PDE3A Human Phosphodiesterase (Q14432 whole entry): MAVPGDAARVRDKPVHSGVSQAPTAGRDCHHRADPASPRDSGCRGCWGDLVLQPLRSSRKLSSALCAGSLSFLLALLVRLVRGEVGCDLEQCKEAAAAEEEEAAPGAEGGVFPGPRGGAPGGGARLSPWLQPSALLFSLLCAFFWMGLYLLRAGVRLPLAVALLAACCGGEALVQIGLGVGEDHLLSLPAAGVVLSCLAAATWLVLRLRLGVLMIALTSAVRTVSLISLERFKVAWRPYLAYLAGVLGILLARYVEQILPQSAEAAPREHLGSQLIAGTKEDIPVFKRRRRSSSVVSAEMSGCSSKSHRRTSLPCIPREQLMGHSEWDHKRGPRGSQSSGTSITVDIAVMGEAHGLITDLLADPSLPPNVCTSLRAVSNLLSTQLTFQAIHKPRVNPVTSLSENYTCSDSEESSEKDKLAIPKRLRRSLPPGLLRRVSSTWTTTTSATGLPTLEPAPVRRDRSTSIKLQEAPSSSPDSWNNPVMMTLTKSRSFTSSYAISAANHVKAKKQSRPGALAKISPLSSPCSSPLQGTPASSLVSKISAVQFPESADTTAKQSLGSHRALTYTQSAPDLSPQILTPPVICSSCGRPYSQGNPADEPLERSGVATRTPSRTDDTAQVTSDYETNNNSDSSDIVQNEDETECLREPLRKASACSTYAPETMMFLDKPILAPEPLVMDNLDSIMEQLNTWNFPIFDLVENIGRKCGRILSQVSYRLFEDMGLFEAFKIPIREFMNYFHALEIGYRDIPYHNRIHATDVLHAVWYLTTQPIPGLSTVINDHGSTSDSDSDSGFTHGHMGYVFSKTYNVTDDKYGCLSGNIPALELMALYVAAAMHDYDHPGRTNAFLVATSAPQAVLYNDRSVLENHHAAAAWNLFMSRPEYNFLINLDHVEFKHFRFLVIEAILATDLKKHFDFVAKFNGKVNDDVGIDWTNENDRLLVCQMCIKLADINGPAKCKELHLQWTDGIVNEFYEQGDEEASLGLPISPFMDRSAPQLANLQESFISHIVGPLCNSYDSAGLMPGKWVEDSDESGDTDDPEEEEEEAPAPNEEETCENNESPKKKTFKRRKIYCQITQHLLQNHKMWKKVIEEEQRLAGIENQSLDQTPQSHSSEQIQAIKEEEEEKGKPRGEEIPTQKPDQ
T16 sequence (P21554 whole entry): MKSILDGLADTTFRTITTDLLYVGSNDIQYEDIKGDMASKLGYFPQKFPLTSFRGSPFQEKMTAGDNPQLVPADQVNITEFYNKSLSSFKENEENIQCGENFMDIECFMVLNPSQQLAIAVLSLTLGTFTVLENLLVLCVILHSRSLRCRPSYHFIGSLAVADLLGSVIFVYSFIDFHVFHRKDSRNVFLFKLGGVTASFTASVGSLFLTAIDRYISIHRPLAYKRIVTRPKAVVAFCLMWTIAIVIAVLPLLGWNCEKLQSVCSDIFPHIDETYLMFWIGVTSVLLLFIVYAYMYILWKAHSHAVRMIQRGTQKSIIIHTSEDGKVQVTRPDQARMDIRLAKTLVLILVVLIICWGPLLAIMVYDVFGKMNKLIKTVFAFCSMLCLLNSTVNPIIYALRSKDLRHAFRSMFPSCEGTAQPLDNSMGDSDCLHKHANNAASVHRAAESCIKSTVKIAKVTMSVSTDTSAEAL
T34 sequence (P22303 whole entry): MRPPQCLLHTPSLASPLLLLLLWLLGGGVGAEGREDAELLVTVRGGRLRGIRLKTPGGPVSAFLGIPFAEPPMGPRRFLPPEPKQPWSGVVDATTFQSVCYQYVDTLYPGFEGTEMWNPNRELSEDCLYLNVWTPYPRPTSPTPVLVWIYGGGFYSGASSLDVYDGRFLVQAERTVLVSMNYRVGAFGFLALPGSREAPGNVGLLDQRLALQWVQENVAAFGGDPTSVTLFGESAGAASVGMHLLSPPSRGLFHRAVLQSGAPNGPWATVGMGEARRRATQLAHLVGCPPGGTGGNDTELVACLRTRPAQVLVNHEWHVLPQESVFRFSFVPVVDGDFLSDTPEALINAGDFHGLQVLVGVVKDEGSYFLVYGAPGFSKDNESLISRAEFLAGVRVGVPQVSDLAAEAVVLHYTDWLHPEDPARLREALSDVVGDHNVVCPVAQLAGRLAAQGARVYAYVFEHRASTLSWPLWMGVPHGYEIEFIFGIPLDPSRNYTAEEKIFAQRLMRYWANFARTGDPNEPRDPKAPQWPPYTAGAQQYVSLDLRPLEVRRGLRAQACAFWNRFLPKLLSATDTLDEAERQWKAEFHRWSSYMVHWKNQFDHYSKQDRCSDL
T14 sequence (P35367 whole entry): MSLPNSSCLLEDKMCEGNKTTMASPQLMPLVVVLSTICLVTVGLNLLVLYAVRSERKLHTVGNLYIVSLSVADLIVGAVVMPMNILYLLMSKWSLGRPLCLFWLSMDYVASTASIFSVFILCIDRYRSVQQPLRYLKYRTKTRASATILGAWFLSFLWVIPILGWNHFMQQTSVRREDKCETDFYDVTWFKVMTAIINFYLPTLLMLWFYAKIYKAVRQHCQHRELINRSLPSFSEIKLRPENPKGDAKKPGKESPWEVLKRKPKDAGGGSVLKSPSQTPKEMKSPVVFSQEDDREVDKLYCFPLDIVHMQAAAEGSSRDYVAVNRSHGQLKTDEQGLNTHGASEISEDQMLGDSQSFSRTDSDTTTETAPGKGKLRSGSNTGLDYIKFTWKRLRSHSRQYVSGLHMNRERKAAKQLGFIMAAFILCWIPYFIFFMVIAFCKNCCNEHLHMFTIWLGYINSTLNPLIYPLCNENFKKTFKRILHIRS
T21 sequence (P35348 whole entry): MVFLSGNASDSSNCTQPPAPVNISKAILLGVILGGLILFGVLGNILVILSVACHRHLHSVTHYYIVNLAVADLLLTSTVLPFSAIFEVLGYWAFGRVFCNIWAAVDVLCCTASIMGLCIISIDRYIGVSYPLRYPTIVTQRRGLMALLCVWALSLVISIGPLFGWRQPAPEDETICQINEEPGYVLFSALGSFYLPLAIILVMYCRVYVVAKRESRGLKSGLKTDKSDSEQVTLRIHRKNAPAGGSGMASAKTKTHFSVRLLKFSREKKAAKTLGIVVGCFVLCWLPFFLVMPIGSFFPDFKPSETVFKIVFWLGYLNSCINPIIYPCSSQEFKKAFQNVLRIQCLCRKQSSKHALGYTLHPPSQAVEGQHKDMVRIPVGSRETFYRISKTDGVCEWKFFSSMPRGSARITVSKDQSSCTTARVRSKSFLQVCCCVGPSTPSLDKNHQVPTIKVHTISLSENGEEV
T11 sequence (P07550 whole entry): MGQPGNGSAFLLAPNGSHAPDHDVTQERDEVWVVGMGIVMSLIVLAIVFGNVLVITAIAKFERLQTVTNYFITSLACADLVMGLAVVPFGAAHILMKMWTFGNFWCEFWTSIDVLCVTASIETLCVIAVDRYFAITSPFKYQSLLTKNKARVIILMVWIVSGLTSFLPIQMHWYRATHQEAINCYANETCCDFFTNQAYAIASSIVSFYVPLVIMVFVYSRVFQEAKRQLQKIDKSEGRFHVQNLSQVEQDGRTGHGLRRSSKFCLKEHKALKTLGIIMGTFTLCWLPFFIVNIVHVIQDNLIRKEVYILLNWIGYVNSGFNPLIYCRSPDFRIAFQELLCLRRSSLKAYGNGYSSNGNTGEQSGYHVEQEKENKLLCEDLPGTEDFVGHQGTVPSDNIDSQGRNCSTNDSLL

Cc1c(CC(=O)O)c(=O)oc2c(C)c(OCc3cccc(I)c3)ccc12 [4az (in ref. 19), DRAinh-A270]
inhibition at 10 µM (D1 Human Dopamine): 13%
inhibition at 10 µM (hERG): 19%
inhibition at 10 µM (H2 Human Histamine): -2%
inhibition at 10 µM [1]: 47%
inhibition at 10 µM [2]: -3%
inhibition at 10 µM (5-HT1A Human Serotonin): 0%
inhibition at 10 µM (GR Human Glucocorticoid): -7%
inhibition at 10 µM [3]: 29%
inhibition at 10 µM (5-HT1B Human Serotonin): -1%
inhibition at 10 µM (mu (MOP) Human Opioid): -5%
inhibition at 10 µM (beta2 Human Adrenoceptor): 3%
inhibition at 10 µM [4]: 9%
inhibition at 10 µM [5]: -3%
inhibition at 10 µM (H1 Human Histamine): 27%
inhibition at 10 µM (V1A Human Vasopressin): -1%
inhibition at 10 µM (CB1 Human Cannabinoid): -3%
inhibition at 10 µM [6]: 8%
inhibition at 10 µM (ETA Human Endothelin): 13%
inhibition at 10 µM (D2S Human Dopamine): 2%
inhibition at 10 µM (beta1 Human Adrenoceptor): 14%
inhibition at 10 µM [7]: 5%
inhibition at 10 µM (5-HT2A Human Serotonin): 17%
inhibition at 10 µM (kappa (KOP) Human Opioid): 7%
inhibition at 10 µM (CB2 Human Cannabinoid): -1%
inhibition at 10 µM (delta (DOP) Human Opioid): -3%
inhibition at 10 µM (5-HT2B Human Serotonin): 64%
inhibition at 10 µM (A2A Human Adenosine): 46%
inhibition at 10 µM (AR Human Androgen): 13%
inhibition at 10 µM [8]: -5%
inhibition at 10 µM (5-HT3 Human Serotonin): -6%
inhibition at 10 µM [9]: -2%
inhibition at 10 µM [10]: 15%
inhibition at 10 µM [11]: 4%
inhibition at 10 µM [12]: -1%
inhibition at 10 µM [13]: -2%
inhibition at 10 µM (Acetylcholinesterase): 10%
inhibition at 10 µM [14]: 73%
pIC50 (SLC26A3 (murine)): ~7.22
pIC50 (SLC26A3 (human)): 7.70
